The target of assay [1] is T1, K-Ras G12V (Homo sapiens, UniProt P01116, G12V). Briefly: SOS1 catalyzed nucleotide exchange assay (GDP form K-Ras), K-Ras G12V. As to conditions: read-out: K-Ras G12V GDP Biochemical Activity (IC50).
Assay [2] has as its system p-ERK in AGS cells (K-Ras G12D). Briefly: Phospho-ERK1/2(THR202/TYR204) HTRF assay, AGS. The format is cell-based. The conditions noted are these: Homo sapiens, 2 h, 2 hours incubation. On the technique in general: Time-resolved FRET reads energy transfer from a long-lived donor to a nearby acceptor.
Assay [3] relates to AGS cells (K-Ras G12D). As to the kind of experiment: 2D cell growth inhibition assay, AGS. As to conditions: Homo sapiens, 144 h, 6 days, absolute IC50. In kind it is cell-based.
For assay [4], the system named is AsPC-1 cells (K-Ras G12D). Briefly: 2D cell growth inhibition assay, AsPC-1. In kind it is cell-based. As to conditions: Homo sapiens, ASPC1, 144 h, AsPC-1, K-Ras G12D, 6 days, absolute IC50.
In assay [5] the target is T2, K-Ras G12D (Homo sapiens, UniProt P01116, G12D). As to the kind of experiment: biochemical.
T2 sequence (P01116 1-169 isoform P01116-2 G12D): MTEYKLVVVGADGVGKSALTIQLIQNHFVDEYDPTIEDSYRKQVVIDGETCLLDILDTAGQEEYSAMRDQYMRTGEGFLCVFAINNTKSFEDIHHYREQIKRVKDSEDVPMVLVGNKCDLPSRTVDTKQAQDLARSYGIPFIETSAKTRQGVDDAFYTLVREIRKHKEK
Assay [6] deals with T2, K-Ras G12D. Briefly: biochemical. The source holds these as a separate data set.
Assay [7] deals with T1, K-Ras G12V. As to the kind of experiment: biochemical.
Assay [8] addresses T3, K-Ras WT (Homo sapiens, UniProt P01116). As to the kind of experiment: SOS1 catalyzed nucleotide exchange assay (GDP form K-Ras), K-Ras WT. As to conditions: read-out: K-Ras WT GDP Biochemical Activity (IC50).
In assay [9] the test system is p-ERK in SW620 cells (K-Ras G12V). Briefly: Phospho-ERK1/2(THR202/TYR204) HTRF assay, SW620. The format is cell-based. The conditions noted are these: Homo sapiens, SW-620, 2 h, 2 hours incubation.
Assay [10] has as its system SW620 cells (K-Ras G12V). As to the kind of experiment: 2D cell growth inhibition assay, SW620. In kind it is cell-based. The conditions noted are these: Homo sapiens, SW-620, 144 h, 6 days, absolute IC50.
In assay [11] the target is T4, K-Ras G13D (Homo sapiens, UniProt P01116, G13D). Briefly: biochemical.
T4 sequence (P01116 1-169 isoform P01116-2 G13D): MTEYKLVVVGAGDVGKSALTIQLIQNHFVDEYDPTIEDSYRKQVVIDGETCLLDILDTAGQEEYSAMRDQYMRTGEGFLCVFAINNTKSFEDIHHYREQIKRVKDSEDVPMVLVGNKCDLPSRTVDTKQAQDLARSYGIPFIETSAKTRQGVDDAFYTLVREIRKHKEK
Assay [12] deals with T4, K-Ras G13D. Briefly: biochemical. The source holds these as a separate data set.
The target in assay [13] is T3, K-Ras WT. Briefly: biochemical.
The target of assay [14] is T2, K-Ras G12D.
Assay [15] has as its target T4, K-Ras G13D.
In assay [16] the target is T3, K-Ras WT. As to the kind of experiment: GTP-K-Ras and cRAF interaction assay (GppNp-K-Ras), K-Ras WT. The conditions noted are these: read-out: K-Ras WT GppNp Biochemical Activity (IC50).
In assay [17] the target is T2, K-Ras G12D. Briefly: GTP-K-Ras and cRAF interaction assay (GppNp-K-Ras), K-Ras G12D. The conditions noted are these: read-out: K-Ras G12D GppNp Biochemical Activity (IC50).
For assay [18], the target named is T1, K-Ras G12V. As to the kind of experiment: GTP-K-Ras and cRAF interaction assay (GppNp-K-Ras), K-Ras G12V. The conditions noted are these: read-out: K-Ras G12V GppNp Biochemical Activity (IC50).
Assay [19] concerns the target T4, K-Ras G13D. Briefly: GTP-K-Ras and cRAF interaction assay (GppNp-K-Ras), K-Ras G13D. The conditions noted are these: read-out: K-Ras G13D GppNp Biochemical Activity (IC50).
The target in assay [20] is T5, K-Ras G12C (Homo sapiens, UniProt P01116, G12C). Briefly: SOS1 catalyzed nucleotide exchange assay (GDP form K-Ras), K-Ras G12C. As to conditions: read-out: K-Ras G12C GDP Biochemical Activity (IC50).
T5 sequence (P01116 1-169 isoform P01116-2 G12C): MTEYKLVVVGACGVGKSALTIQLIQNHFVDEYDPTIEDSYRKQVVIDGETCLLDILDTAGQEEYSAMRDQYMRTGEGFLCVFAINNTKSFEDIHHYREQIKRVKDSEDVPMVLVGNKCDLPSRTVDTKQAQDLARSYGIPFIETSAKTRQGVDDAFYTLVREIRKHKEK
Assay [21] deals with T6, K-Ras G12A (Homo sapiens, UniProt P01116, G12A). As to the kind of experiment: SOS1 catalyzed nucleotide exchange assay (GDP form K-Ras), K-Ras G12A. As to conditions: read-out: K-Ras G12A GDP Biochemical Activity (IC50).
T6 sequence (P01116 1-169 isoform P01116-2 G12A): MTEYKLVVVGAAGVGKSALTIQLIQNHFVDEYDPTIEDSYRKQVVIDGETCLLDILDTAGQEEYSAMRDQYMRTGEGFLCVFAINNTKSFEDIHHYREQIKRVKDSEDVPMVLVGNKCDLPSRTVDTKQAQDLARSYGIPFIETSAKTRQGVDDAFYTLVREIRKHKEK
Assay [22] addresses T7, K-Ras G12R (Homo sapiens, UniProt P01116, G12R). Briefly: SOS1 catalyzed nucleotide exchange assay (GDP form K-Ras), K-Ras G12R. As to conditions: read-out: K-Ras G12R GDP Biochemical Activity (IC50).
Assay [23] deals with T8, K-Ras Q61H (Homo sapiens, UniProt P01116, Q61H). Briefly: SOS1 catalyzed nucleotide exchange assay (GDP form K-Ras), K-Ras Q61H. The conditions noted are these: read-out: K-Ras Q61H GDP Biochemical Activity (IC50).
T8 sequence (P01116 1-169 isoform P01116-2 Q61H): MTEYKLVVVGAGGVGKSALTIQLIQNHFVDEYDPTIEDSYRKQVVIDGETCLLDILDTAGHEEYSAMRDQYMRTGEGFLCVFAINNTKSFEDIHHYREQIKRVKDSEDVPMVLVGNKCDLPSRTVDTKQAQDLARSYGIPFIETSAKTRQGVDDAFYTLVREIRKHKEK
The target in assay [24] is T5, K-Ras G12C. Briefly: GTP-K-Ras and cRAF interaction assay (GppNp-K-Ras), K-Ras G12C. As to conditions: read-out: K-Ras G12C GppNp Biochemical Activity (IC50).
For assay [25], the target named is T6, K-Ras G12A. As to the kind of experiment: GTP-K-Ras and cRAF interaction assay (GppNp-K-Ras), K-Ras G12A. The conditions noted are these: read-out: K-Ras G12A GppNp Biochemical Activity (IC50).
Assay [26] concerns the target T7, K-Ras G12R. As to the kind of experiment: GTP-K-Ras and cRAF interaction assay (GppNp-K-Ras), K-Ras G12R. The conditions noted are these: read-out: K-Ras G12R GppNp Biochemical Activity (IC50).
In assay [27] the target is T8, K-Ras Q61H. Briefly: GTP-K-Ras and cRAF interaction assay (GppNp-K-Ras), K-Ras Q61H. The conditions noted are these: read-out: K-Ras Q61H GppNp Biochemical Activity (IC50).

Values joined by “and” are separate entries in the source; they are usually repeats but may differ in a detail not shown here. Identical values can stand only once. Like-named read-outs stand apart in the source and are kept apart here.

T1 sequence (P01116 1-169 isoform P01116-2 G12V): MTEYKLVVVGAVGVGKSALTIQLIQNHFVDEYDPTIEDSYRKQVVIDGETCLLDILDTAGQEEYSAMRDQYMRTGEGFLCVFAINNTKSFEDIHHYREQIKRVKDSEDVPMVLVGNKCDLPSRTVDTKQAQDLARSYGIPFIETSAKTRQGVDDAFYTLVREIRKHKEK
T3 sequence (P01116 1-169 isoform P01116-2): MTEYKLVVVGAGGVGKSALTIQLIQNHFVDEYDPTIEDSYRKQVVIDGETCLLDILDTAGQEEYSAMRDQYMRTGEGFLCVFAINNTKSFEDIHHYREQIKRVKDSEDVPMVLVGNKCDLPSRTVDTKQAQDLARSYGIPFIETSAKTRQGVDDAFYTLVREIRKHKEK
T7 sequence (P01116 1-169 isoform P01116-2 G12R): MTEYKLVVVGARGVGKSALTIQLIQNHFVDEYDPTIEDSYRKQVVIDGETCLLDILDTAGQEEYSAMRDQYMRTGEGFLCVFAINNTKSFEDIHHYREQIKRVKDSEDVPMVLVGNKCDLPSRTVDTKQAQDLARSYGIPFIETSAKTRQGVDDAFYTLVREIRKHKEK

Turning to `C#Cc1c(F)ccc2cc(O)cc(-c3nc(C#N)c4c(N5CCCOCC5)nc(OC[C@@]56CCCN5C[C@H](F)C6)nc4c3F)c12` [Compound 129, 7-(8-ethynyl-7-fluoro-3-hydroxynaphthalen-1-yl)-8-fluoro-2-(((2R,7aS)-2-fluorotetra-hydro-1H-pyrrolizin-7a(5H)-yl)methoxy)-4-(1,4-oxazepan-4-yl)pyrido[4,3-d] pyrimidine-5-carbonitrile], the IC50 is 0.0198 µM in [1]; 83.1 nM in assay [2]; 521 nM in assay [3]; 1070 nM in [4]; 0.00963 µM in assay [5]; more than 1 µM in assay [6]. The IC50 in [7] was more than 1 µM.

Turning to `C#Cc1c(F)ccc2cc(O)cc(-c3ncc4c(N5CCOCC(C)(O)C5)nc(OC[C@@]56CCCN5C[C@H](F)C6)nc4c3F)c12` (stereo partly drawn) [Compound 23, 4-(7-(8-ethynyl-7-fluoro-3-hydroxynaphthalen-1-yl)-8-fluoro-2-(((2R,7aS)-2-fluorotetrahydro-1H-pyrrolizin-7a(5H)-yl)methoxy)pyrido[4,3-d]pyrimidin-4-yl)-6-methyl-1,4-oxazepan-6-ol trifluoroacetic acid], the IC50 was 0.00275 µM in assay [1]; 0.00318 µM in assay [8]; 33.8 nM in assay [2]; 138 nM in assay [9]; 40.1 nM in assay [3]; 693 nM in assay [4]. In addition, the IC50 in [10] is 196 nM; in [5] it was 0.00199 µM; in assay [11], more than 0.1 µM; in assay [6] it was approximately 0.1 µM; in assay [7], 0.239 µM; in [12] it was more than 0.1 µM. In assay [13], this compound showed an IC50 of 0.134 µM.

As for `C#Cc1c(F)ccc2cc(O)cc(-c3ncc4c(N5CCOC[C@H](CC#N)C5)nc(OC[C@@]56CCCN5C[C@H](F)C6)nc4c3F)c12` (single isomer, unassigned) [Compound 14B], the IC50 in assay [1] was found to be 0.000515 µM; in assay [8] it was 0.000882 µM; in assay [2], 22.9 nM; in assay [9], 112 nM; in assay [3] it was 49.7 nM; in assay [4], 708 nM. In addition, the IC50 in assay [10] was found to be 207 nM; in assay [14], 0.000739 µM; in [15], 0.00276 µM; in assay [16] it was 0.0158 µM; in assay [17] it was 0.00731 µM; in [18] it was 0.158 µM. Also, the IC50 in assay [19] was 0.00187 µM.

With `C#Cc1c(F)ccc2cc(O)cc(-c3ncc4c(N5CCCOC[C@@H]5C)nc(OC[C@@]56CCCN5C[C@H](F)C6)nc4c3F)c12` (single isomer, unassigned) [Compound 16A], the IC50 in [1] was determined as 0.00605 µM; in assay [8] it was 0.00388 µM; in assay [2], 42.6 nM; in assay [9], 40.5 nM; in assay [3], 242 nM; in assay [4], 1380 nM. Moreover, the IC50 turned out to be 191 nM in [10]; 0.00378 µM in [14]; 0.0142 µM in assay [15]; 0.741 µM in assay [16]; 0.315 µM in assay [17]; 0.469 µM in [18]. Besides, the IC50 in assay [19] came to 0.0372 µM.

Turning to `C#Cc1c(F)ccc2cc(O)cc(-c3ncc4c(N5CCOCC(C)(OC)C5)nc(OC[C@@]56CCCN5C[C@H](F)C6)nc4c3F)c12` (stereo partly drawn) [Compound 109, 5-ethynyl-6-fluoro-4-(8-fluoro-2-(((2R,7aS)-2-fluorotetrahydro-1H-pyrrolizin-7a(5H)-yl)methoxy)-4-(6-methoxy-6-methyl-1,4-oxazepan-4-yl)pyrido[4,3-d]pyrimidin-7-yl)naphthalen-2-ol], the IC50 in assay [1] was 0.00495 µM and 0.039 µM; in assay [8] it was 0.0144 µM and 0.0679 µM; in [2], 203 nM; in [9], 238 nM; in assay [11], 0.0293 µM; in [6], 0.916 µM and 8.23 µM. In addition, the IC50 in assay [7] is 2.22 µM and > 10 µM; in assay [12] it was more than 0.1 µM; in assay [13], 1.26 µM.

For the compound `C#Cc1c(F)ccc2cc(O)cc(-c3nc([S+](C)[O-])c4c(N5CCCOCC5)nc(OC[C@@]56CCCN5C[C@H](F)C6)nc4c3F)c12` (stereo partly drawn) [Compound 127, 5-ethynyl-6-fluoro-4-(8-fluoro-2-(((2R,7aS)-2-fluorotetrahydro-1H-pyrrolizin-7a(5H)-yl)methoxy)-5-(methylsulfinyl)-4-(1,4-oxazepan-4-yl)pyrido[4,3-d]pyrimidin-7-yl)naphthalen-2-ol], the IC50 in [1] is 0.0885 µM; in assay [5] it was 0.0931 µM; in assay [6], more than 1 µM; in assay [7], more than 1 µM.

With `C#Cc1c(F)ccc2cc(O)cc(-c3c(Cl)cc4c(N5CCCOCC5)nc(OC[C@@]56CCCN5C[C@H](F)C6)nc4c3F)c12` (atropisomer, axis not shown; (M)) [Compound 19B, (M)-4-(6-chloro-8-fluoro-2-(((2R,7aS)-2-fluorotetrahydro-1H-pyrrolizin-7a(5H)-yl)methoxy)-4-(1,4-oxazepan-4-yl)quinazolin-7-yl)-5-ethynyl-6-fluoronaphthalen-2-ol trifluoroacetic acid], the IC50 worked out at 0.00527 µM in [1]; 0.00369 µM in assay [20]; 0.0157 µM in assay [21]; 0.00317 µM in assay [22]; 0.00665 µM in assay [23]; 0.00872 µM in assay [8]. The IC50 worked out at 0.00562 µM in [14]; 0.0144 µM in assay [15]; 0.183 µM in assay [16]; 0.057 µM in assay [17]; 0.136 µM in assay [18]; 0.302 µM in assay [24]. Moreover, the IC50 in assay [19] amounted to 0.00788 µM; in [25] it was 0.493 µM; in assay [26] it was 0.0959 µM; in assay [27] it was 0.212 µM.

Broadly, the IC50 is the concentration at which inhibition is half-maximal.

For the origin of these results see patent US20250019377A1 (JACOBIO PHARMACEUTICALS CO., LTD, priority 2021, published 2025).
